Experimental data published in US20180110796A1, “COMPOSITIONS AND METHODS FOR THE TREATMENT OF HBV INFECTION” (Spring Bank Pharmaceuticals, Inc., priority 2015, published 2018).

Legend:
[1] = test system: wild type HBV or resistant variants of HBV (polymerase M204V, M204I, L180M, L180M/M204V, N236T); experiment: Antiviral assays in cells chronically infected with wild type HBV or resistant variants (Example 4); format: cell-based; details: added to the cells daily for nine consecutive days
Procedure: Antiviral assays were carried out in cells chronically infected with resistant variants of HBV. In order to gauge the efficacy of Formula (IIa) and the antiviral nucleoside analogs lamivudine (3TC) and adefovir dipivoxil (ADV) against the tested strains, the in vitro activity (EC50, μM) was determined using six different cell samples chronically infected with HBV. Each cell sample was infected with either wild type HBV or a resistant variant of HBV, wherein the resistant variants comprise mutations in the HBV polymerase (P) at the following amino acid positions: M204V, M204I, L180M, L180M/M204V, and N236T. In each assay, Formula (IIa), 3TC, or ADV was added to the cells daily for nine consecutive days.

[2] = test system: woodchuck hepatitis virus (WHV); experiment: Formula (IIa) in combination with entecavir, sequential oral treatment of chronic WHV carrier woodchucks (Example 3); format: in vivo, woodchuck (Marmota monax)
From the text: Ten (10) woodchucks chronically infected with WHV were used. Woodchucks were born in captivity and were inoculated at 3 days of age with cWHV7P2a inoculum, then reared until 11 months of age. Prior to the study, woodchucks were confirmed as established chronic carriers of WHV based on established criteria including the presence of WHV surface antigen (WHsAg), antibody against […], and WHV DNA. Woodchucks used in the study were of both gender and approximately between 12 and 14 months of age at the start of the study.
Two (2) groups of five (5) chronic WHV carrier woodchucks each were used in the study:
Group 1 was orally treated for 4 weeks with ETV at a daily dose of 0.5 mg/kg starting at T0, followed by add-on treatment with Formula (IIa) for 12 weeks at a daily dose of 30 mg/kg. Woodchucks were then followed for a total of 24 weeks.
Group 2 was orally treated for 12 weeks with Formula (IIa) at a daily dose of 30 mg/kg starting at T0, followed by add-on treatment with ETV for 4 weeks at a daily dose of 0.5 mg/kg. Woodchucks were then also followed for a total of 24 weeks.
Formula (IIa) was supplied as a pre-weighed powder in individual containers. An amount of powder sufficient to treat all 10 pre-weighed woodchucks per day with Formula (IIa) was mixed directly with woodchuck diet powder (Dyets Inc., Bethlehem, Pa.) and then suspended with HPLC water. The drug was orally administered with a dose syringe at T0 (Group 2) or after 4 weeks of treatment with ETV (Group 1), and thereafter every day for 12 weeks (84 days). Drug dosing was then followed by an extra 2 ml of woodchuck liquid diet to ensure complete consumption of Formula (IIa).
ETV was provided as powder. An amount of powder sufficient to treat all 10 woodchucks per day was suspended in isotonic saline at a concentration of 0.5 mg/ml. A volume (ml) of drug solution equivalent to the body weight (kg) of an individual woodchuck was then mixed with approximately 3-5 ml of woodchuck liquid diet and administered orally with a dose syringe at T0 (Group 1) or after 12 weeks of treatment with Formula (IIa) (Group 2), and thereafter every day for 4 weeks (28 days). ETV dosing was followed by an extra 2 ml of woodchuck liquid diet to ensure complete consumption of drug.
Prior to administration of Formula (IIa) or ETV at T0, then weekly until the end of the study at week 24, whole blood samples were drawn from each woodchuck under ketamine/xylazine anesthesia for determinations of serum WHV DNA, WHsAg, and anti-WHs (see Summary Table below). […] Blood samples were kept at room temperature following collection and serum harvested upon observation of clot retraction. Harvested serum was transferred to microcentrifuge tubes and stored frozen at −70° C. until use.
The induction of an innate immune response in peripheral blood and liver of woodchucks by combination treatment with Formula (IIa) and ETV were determined via real time PCR-based assays. Whole blood samples were obtained prior to the start of treatment with Formula (IIa) at T0, and then at weeks 4, 10, 16, 20, and 24 (Group 1) or at weeks 6, 12, 16, 20, and 24 (Group 2) (see Summary Table below). Whole blood was drawn into PAXgene blood tubes at the indicated time points and stored at −70° C. until use. Total RNA was isolated from whole blood and treated with DNase using the PAXgene Blood miRNA Kit (Quiagen). This was followed by reverse transcription of mRNA into cDNA and amplification of host immune response genes by real time PCR. Woodchuck cytokine and interferon-stimulated genes included IFN-α, IFN-β, interleukin 6 (IL-6), 2′-5′-oligoadenylate synthetase 1 (OAS-1), interferon-induced 17 kDa protein (ISG15), and interferon gamma-induced protein 10 (IP-10or CXCL10). Woodchuck 18S rRNA expression was used to normalize target gene expression. […]

[3] = test system: woodchuck hepatitis virus (WHV); experiment: Antiviral activity of Formula (Ia), intraperitoneal, in chronic WHV carrier woodchucks (Example 1); format: in vivo, woodchuck (Marmota monax)
Procedure: Three groups of five chronic WHV carrier woodchucks were used in this in this study. Formula (Ia) was administered intraperitoneally to two groups for a total of 4 weeks. Groups for drug treatment received Formula (Ia) at either 10 mg/kg/day or 30 mg/kg/day. The third group received physiological saline intraperitoneally and served as placebo-treated controls.
Blood samples for WHV serology, serum […], and hematological and biochemical profiles were obtained prior to the start of treatment and taken thereafter according to the study design. The body weight of each subject was recorded when the woodchucks were anesthetized and bled. The recorded body weights of the drug-treated woodchucks were compared to the placebo-treated control woodchucks to assess possible drug toxicity. WHsAg and anti-WHs and anti-WHc antibodies were determined qualitatively using established ELISA protocols. Dilutions of serum were used to ensure the detection of these markers […] conditions.
WHV DNA in serum was initially measured by dot blot hybridization and quantified by comparing signals of test specimens and standards of known WHV DNA concentration using a homologous probe. […] Quantitative WHV nucleic acid analyses were also performed using a real-time PCR assay with samples containing serum WHV DNA below the limit of detection by dot blot analysis. […]

## CC(C)(C)C(=O)OCOP(=O)(COCCn1cnc2c(N)ncnc21)OCOC(=O)C(C)(C)C [ADV, adefovir dipivoxil, reference compound]
[1]
  efficacy against cells infected with wild type and resistant HBV strains (in vitro activity, FIG. 31): efficacious against cells infected with all the HBV strains tested

## C=C1[C@H](CO)[C@@H](O)C[C@@H]1n1cnc2c(=O)[nH]c(N)nc21 [ETV, entecavir, reference compound]
[2]; ETV 0.5 mg/kg daily oral for 4 weeks, expectation from previous studies
  expected suppression of serum viremia: 3-4 log10
[2]; ETV 0.5 mg/kg daily oral, Group 1
  reductions in serum WHV DNA from pretreatment level during the 4 weeks of ETV: marked reductions
[2]; ETV 0.5 mg/kg, most woodchucks of Group 1
  reductions in serum WHsAg from pretreatment level during the 4 weeks of ETV administration: marked reductions

## COC1[C@@H](OP(=O)(S)OC[C@H]2O[C@@H](n3cnc4c(N)ncnc43)C[C@H]2O)[C@@H](CO)O[C@H]1n1ccc(=O)[nH]c1=O (stereo partly drawn) [Formula (Ia)]
[3]; 30 mg/kg, end of treatment at week 4
  staining intensity of cytoplasmic WHcAg in liver tissues compared to placebo controls: significantly decreased
[3]; 10 and 30 mg/kg/day, 4 weeks
  consistent reductions in serum WHsAg and in hepatic expression of WHcAg and WHsAg: not observed on a dose-response basis
